Data as given in publication PMC3043256 (Cancer Chemotherapy and Pharmacology, 2010).
Where two headings read alike, the source gives them in different places.

Legend:
[1] = Midazolam pharmacokinetics; assay type: in vivo, human
[2] = cited from earlier work
[3] = system: organic anion transporting polypeptides (OATPs); settings: in vitro; cited from earlier work
[4] = Literature clinical pharmacokinetics of sunitinib; settings: follows from half-life ~50 h
ABCG2 = settings: in vitro; cited from earlier work
[5] = cited from earlier work; remark: listed apart in the source
ABCB1 = settings: in vitro; cited from earlier work
[6] = assay type: in vivo, human; settings: for Increase of sunitinib exposure by grapefruit juice: model estimate; for AUC(0-t): AUC0–24 h
[7] = cited from earlier work; remark: listed apart in the source
[8] = final population PK model, cancer patients
[9] = human, plasma, oral, sunitinib with grapefruit juice when simultaneously taken, mean (range)
[10] = sunitinib with grapefruit juice when simultaneously taken, mean (range)

With Cc1ncc2n1-c1ccc(Cl)cc1C(c1ccccc1F)=NC2 [midazolam] as the compound, how does the AUC(0-t) ([1]; human, plasma, po, 7.5 mg, Midazolam AUC0–24 h, without GJ, single oral 7.5 mg midazolam, mean (±SEM)) read?
Its AUC(0-t) is 122 ng·h/mL.

And the “Increase of midazolam exposure (AUC0–24 h) by GJ” value ([1]; second vs first PK day)?
The value was ~ 50%.

With CCN(CC)CCNC(=O)c1c(C)[nH]c(/C=C2\C(=O)Nc3ccc(F)cc32)c1C [sunitinib, Sunitinib malate] as the compound, how does the “Protein binding in vitro” value [2] read?
The value was “extensively protein bound”.

And the “Affinity for OATPs” value [3]?
The value was “no affinity”.

What about the “Time to reach steady-state PK” value [4] of the same compound?
Its value is ~ 8 days.

And the “Substrate of drug transporter ABCG2” value (ABCG2)?
Its value is “moderate substrate”.

What about the “Apparent volume of distribution” value [5] of the same compound?
Its value is ~ 2,000 liters.

And the “Effect of food intake on pharmacokinetics” value [5]?
Its value is “does not affect”.

What about the “Interpatient variability in sunitinib clearance” value [5] of the same compound?
The value was ~ 40%.

What about the half-life [5] of the same compound?
Its half-life is ~ 50 h.

And the “Substrate of drug transporter ABCB1” value (ABCB1)?
Its value is “moderate substrate”.

What about the “Increase of sunitinib exposure by grapefruit juice” value (shortened to “Increase of sunitinib exposure”) ([6]; GJ consumed 7 h before the sunitinib dose) of the same compound?
Its value is ~ 8.9%.

What about the “Absorption lag time, estimate” value [6, 8] of the same compound?
Its value is 0.487 h.

And the “ka (absorption rate constant), estimate” value [6, 8]?
The value was 0.468 h⁻¹.

And the “Cl/F (apparent clearance), estimate” value ([6]; final population PK model, cancer patients, oral sunitinib 25-50 mg once daily)?
The value was 50.5 L/h.

What about the Tmax ([6]; human, plasma, oral) of the same compound?
Its Tmax is 8.2 h.

What about the Vd/F ([6]; human, plasma, oral) of the same compound?
Its Vd/F is 3210 L.

What about the half-life ([6]; human, plasma, oral) of the same compound?
The half-life was 53 h.

What about the AUC(0-t) [6, 9] of the same compound?
Its AUC(0-t) is 1240 ng·h/mL.

And the AUC(0-t) ([6]; human, plasma, oral, sunitinib without grapefruit juice, steady state, mean (range))?
The AUC(0-t) was 1120 ng·h/mL.

And the Cmax [6, 9]?
The Cmax was 14.4 ng/mL.

And the Cmax ([6]; human, plasma, oral, sunitinib without grapefruit juice, mean (range))?
The Cmax was 13 ng/mL.

And the “Increase of sunitinib exposure” value ([6]; sunitinib 24 h after last GJ consumption)?
Its value is ~ 5.3%.

What about the “Increase of sunitinib exposure” value ([6]; sunitinib 72 h after last GJ consumption) of the same compound?
Its value is ~ 1.3%.

And the “Increase of sunitinib exposure” value ([6]; sunitinib started 1 week after last GJ consumption)?
The value was ~ 0.07%.

And the T max [6, 10]?
The T max was 8.2 (2.8–12.4) h.

What about the “t 1/2 (elimination half-life)” value [6, 10] of the same compound?
The value was 53 (12–107) h.

With Cc1cn(-c2cc(NC(=O)c3ccc(C)c(Nc4nccc(-c5cccnc5)n4)c3)cc(C(F)(F)F)c2)cn1 [nilotinib] as the compound, how does the “Effect of grapefruit juice on drug exposure” value [7] read?
The value was “increase”.
